{"source": "patent EP0962138B1", "about": "“Pesticidal method” (BASF Agro B.V., Arnhem (NL), Wädenswil-Branch, priority 1998, dated 1999)", "key": {"[1]": {"system": "Otiorynchus sulcatus", "assay": "Compost incorporation test, protection of potted plants from weevil larvae (Example 1)", "format": "in vivo", "conditions": "Thuya plicata Atrovirens", "procedure": "In a twenty-replicate test, Compound A was incorporated in compost by mixing a 2% w/w granule with the compost (Klasmann Substrat 2 (Peat based) ) using a small mechanical mixer. Plants of Thuya plicata Atrovirens were potted in the compost and allowed to grow for two months and then about 15 eggs of Otiorynchus sulcatus were added to the soil and covered with a small layer of compost. As a comparison, some compost was untreated and other compost was treated with the standard chlorpyrifos in the form of the commercial product suSCon Green®. After 27 days the soil was reinfested with 15 more eggs. The plant pots were enclosed such that the plants were exposed to light and the adult beetles which emerged could not escape.\nOf the twenty replicates of each test, five were assessed after 6 months and fifteen were assessed after 18 months for numbers of larvae and adults. After 6 months the following results were observed: […]"}, "[2]": {"system": "vine weevil", "assay": "Curative drench treatment of infested potted plants (Example 2)", "format": "in vivo", "conditions": "after 6 months, Fuchsia triphylla hybrid cv. Koralle", "procedure": "In 20-replicate tests, Fuchsia triphylla hybrid cv. Koralle was infested with 15 eggs per pot of vine weevil. Compound A in the form of an 80% water dispersible granule (Regent 800 WG) was suspended in water and added to each pot at the indicated rate per surface area of the pot at various dilutions. After 6 months, the trials were assessed. […] Drench Treatments"}, "[3]": {"conditions": "Dose 75 g/m^3 in compost (suSCon Green), after 6 months, five replicates"}, "[4]": {"conditions": "Dose 75 g/m^3 in compost (suSCon Green), after 18 months, fifteen replicates"}, "[5]": {"conditions": "Dose 2.5 g/m^3 in compost, after 6 months, five replicates"}, "[6]": {"conditions": "Dose 2.5 g/m^3 in compost, after 18 months, fifteen replicates"}, "[7]": {"conditions": "Dose 5 g/m^3 in compost, after 6 months, five replicates"}, "[8]": {"conditions": "Dose 5 g/m^3 in compost, after 18 months, fifteen replicates"}, "[9]": {"conditions": "Dose 7.5 g/m^3 in compost, after 6 months, five replicates"}, "[10]": {"conditions": "Dose 7.5 g/m^3 in compost, after 18 months, fifteen replicates"}, "[11]": {"conditions": "Dose 15 g/m^3 in compost, after 6 months, five replicates"}, "[12]": {"conditions": "Dose 15 g/m^3 in compost, after 18 months, fifteen replicates"}}}
{"smiles": "CCOP(=S)(OCC)Oc1nc(Cl)c(Cl)cc1Cl", "note": "[Chlorpyrifos, chlorpyrifos, reference compound]", "values": [{"measurement": "% Control", "setting": "[1]; [3]", "value": 87, "unit": "%"}, {"measurement": "Number per pot", "setting": "[1]; [3]", "value": 0.8}, {"measurement": "Total # larvae", "setting": "[1]; [3]", "value": 4}, {"measurement": "% Control", "setting": "[1]; [4]", "value": 0, "unit": "%"}, {"measurement": "% Survival of Plants", "setting": "[1]; [4]", "value": 100, "unit": "%"}, {"measurement": "Number per pot", "setting": "[1]; [4]", "value": 3.1}, {"measurement": "Total # larvae", "setting": "[1]; [4]", "value": 47}, {"measurement": "Total Dead Plants", "setting": "[1]; [4]", "value": 0}]}
{"smiles": "N#Cc1nn(-c2c(Cl)cc(C(F)(F)F)cc2Cl)c(N)c1[S+]([O-])C(F)(F)F", "note": "(centres unmarked) [Compound A, 5-amino-1-(2,6-dichloro 4-trifluoromethylphenyl) 4-trifluoromethylsulfinyl-3-cyanopyrazole]", "values": [{"measurement": "% Control", "setting": "[1]; [5]", "value": 100, "unit": "%"}, {"measurement": "Number per pot", "setting": "[1]; [5]", "value": 0}, {"measurement": "Total # larvae", "setting": "[1]; [5]", "value": 0}, {"measurement": "% Control", "setting": "[1]; [6]", "value": 100, "unit": "%"}, {"measurement": "% Survival of Plants", "setting": "[1]; [6]", "value": 100, "unit": "%"}, {"measurement": "Number per pot", "setting": "[1]; [6]", "value": 0}, {"measurement": "Total # larvae", "setting": "[1]; [6]", "value": 0}, {"measurement": "Total Dead Plants", "setting": "[1]; [6]", "value": 0}, {"measurement": "% Control", "setting": "[1]; [7]", "value": 100, "unit": "%"}, {"measurement": "Number per pot", "setting": "[1]; [7]", "value": 0}, {"measurement": "Total # larvae", "setting": "[1]; [7]", "value": 0}, {"measurement": "% Control", "setting": "[1]; [8]", "value": 100, "unit": "%"}, {"measurement": "% Survival of Plants", "setting": "[1]; [8]", "value": 100, "unit": "%"}, {"measurement": "Number per pot", "setting": "[1]; [8]", "value": 0}, {"measurement": "Total # larvae", "setting": "[1]; [8]", "value": 0}, {"measurement": "Total Dead Plants", "setting": "[1]; [8]", "value": 0}, {"measurement": "% Control", "setting": "[1]; [9]", "value": 100, "unit": "%"}, {"measurement": "Number per pot", "setting": "[1]; [9]", "value": 0}, {"measurement": "Total # larvae", "setting": "[1]; [9]", "value": 0}, {"measurement": "% Control", "setting": "[1]; [10]", "value": 100, "unit": "%"}, {"measurement": "% Survival of Plants", "setting": "[1]; [10]", "value": 100, "unit": "%"}, {"measurement": "Number per pot", "setting": "[1]; [10]", "value": 0}, {"measurement": "Total # larvae", "setting": "[1]; [10]", "value": 0}, {"measurement": "Total Dead Plants", "setting": "[1]; [10]", "value": 0}, {"measurement": "% Control", "setting": "[1]; [11]", "value": 100, "unit": "%"}, {"measurement": "Number per pot", "setting": "[1]; [11]", "value": 0}, {"measurement": "Total # larvae", "setting": "[1]; [11]", "value": 0}, {"measurement": "% Control", "setting": "[1]; [12]", "value": 100, "unit": "%"}, {"measurement": "% Survival of Plants", "setting": "[1]; [12]", "value": 100, "unit": "%"}, {"measurement": "Number per pot", "setting": "[1]; [12]", "value": 0}, {"measurement": "Total # larvae", "setting": "[1]; [12]", "value": 0}, {"measurement": "Total Dead Plants", "setting": "[1]; [12]", "value": 0}, {"measurement": "Protection of the plants compared with the commercial standard", "setting": "[2]", "value": "protected the plants substantially better than the commercial standard fonofos"}]}
